Data taken from publication PMC8084333, “Trehalose and α-glucan mediate distinct abiotic stress responses in Pseudomonas aeruginosa” (PLoS Genetics, 2021).

Key:
Assay type in all cases: biochemical
TreS/Pep2 [1] = target: T1, TreS/Pep2 (Pseudomonas aeruginosa, UniProt Q9I1W3); assay: coupled spectrophotometric ADP-release assay (PK/LDH), global fit; conditions: maltokinase (Pep2 domain); ATP varied, 5 mM MgCl2, pH 8.0, 21 °C; KiB term of random order ternary complex model (substrate dissociation constant), not an inhibition constant
T1 construct: gene PA2152; natural TreS-Pep2 fusion; synthetic codon-optimised gene, N-terminal 6xHis-tag with TEV site, E. coli BL21(DE3), Ni and S200 columns
T1 sequence (Q9I1W3 1-1100): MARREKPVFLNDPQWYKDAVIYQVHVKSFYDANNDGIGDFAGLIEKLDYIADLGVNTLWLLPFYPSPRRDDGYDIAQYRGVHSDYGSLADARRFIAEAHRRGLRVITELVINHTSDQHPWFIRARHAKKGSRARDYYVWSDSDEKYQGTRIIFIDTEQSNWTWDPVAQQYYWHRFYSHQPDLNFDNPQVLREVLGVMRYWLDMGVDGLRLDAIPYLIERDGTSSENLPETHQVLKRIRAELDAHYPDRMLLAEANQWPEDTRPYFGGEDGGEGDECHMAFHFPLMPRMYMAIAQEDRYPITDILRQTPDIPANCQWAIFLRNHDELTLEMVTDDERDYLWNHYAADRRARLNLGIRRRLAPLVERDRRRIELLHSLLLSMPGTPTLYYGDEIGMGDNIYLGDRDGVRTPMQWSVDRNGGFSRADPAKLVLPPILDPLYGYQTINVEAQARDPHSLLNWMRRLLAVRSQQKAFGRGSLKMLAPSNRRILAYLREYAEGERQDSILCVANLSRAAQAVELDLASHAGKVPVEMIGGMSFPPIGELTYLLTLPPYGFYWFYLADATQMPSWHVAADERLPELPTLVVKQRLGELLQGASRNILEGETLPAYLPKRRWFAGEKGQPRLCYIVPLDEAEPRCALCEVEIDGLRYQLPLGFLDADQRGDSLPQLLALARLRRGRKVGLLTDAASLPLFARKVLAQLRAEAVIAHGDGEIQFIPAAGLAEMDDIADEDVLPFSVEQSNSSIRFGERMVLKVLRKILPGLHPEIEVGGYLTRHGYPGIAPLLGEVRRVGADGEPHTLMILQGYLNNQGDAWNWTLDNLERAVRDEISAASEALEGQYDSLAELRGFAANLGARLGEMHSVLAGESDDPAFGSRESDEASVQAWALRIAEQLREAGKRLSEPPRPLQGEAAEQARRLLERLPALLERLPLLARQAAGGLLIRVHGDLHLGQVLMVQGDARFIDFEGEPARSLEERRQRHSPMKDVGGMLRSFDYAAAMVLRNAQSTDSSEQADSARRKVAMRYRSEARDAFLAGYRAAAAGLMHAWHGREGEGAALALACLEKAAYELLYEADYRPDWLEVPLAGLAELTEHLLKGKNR

MalQ = target: T2, MalQ (Pseudomonas aeruginosa, UniProt Q9I1V2); assay: MALDI-TOF MS; conditions: 1 mM substrate; disproportionation
T2 construct: gene PA2163; recombinant, N-terminal 6xHis-tag (pET101), E. coli SoluBL21, HisTrap
T2 sequence (Q9I1V2 1-684): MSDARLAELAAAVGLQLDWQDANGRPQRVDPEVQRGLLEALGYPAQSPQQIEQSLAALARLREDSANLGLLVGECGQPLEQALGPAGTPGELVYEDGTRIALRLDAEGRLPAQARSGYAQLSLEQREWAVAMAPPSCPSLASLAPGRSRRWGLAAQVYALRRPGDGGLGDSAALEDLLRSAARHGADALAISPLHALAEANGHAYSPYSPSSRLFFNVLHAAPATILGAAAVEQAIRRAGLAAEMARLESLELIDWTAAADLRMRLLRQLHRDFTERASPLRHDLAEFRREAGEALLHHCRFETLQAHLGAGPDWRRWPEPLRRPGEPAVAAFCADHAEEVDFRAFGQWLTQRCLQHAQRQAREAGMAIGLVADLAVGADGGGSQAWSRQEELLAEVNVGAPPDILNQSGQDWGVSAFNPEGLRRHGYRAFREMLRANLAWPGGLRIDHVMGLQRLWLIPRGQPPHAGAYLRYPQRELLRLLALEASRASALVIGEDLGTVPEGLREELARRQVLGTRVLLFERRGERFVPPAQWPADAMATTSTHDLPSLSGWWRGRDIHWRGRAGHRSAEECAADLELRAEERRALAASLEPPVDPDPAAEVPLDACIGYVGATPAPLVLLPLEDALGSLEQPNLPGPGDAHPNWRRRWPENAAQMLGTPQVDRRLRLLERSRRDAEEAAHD

TreS/Pep2 [2] = target: T1, TreS/Pep2; assay: TreS activity coupled to Pep2 maltokinase ADP-release assay; conditions: trehalose isomerisation (TreS domain); ATP, 5 mM MgCl2, pH 8.0, 21 °C

SMILES | Ki^Mal (TreS/Pep2 [1]) [µM] | MALDI-TOF MS (MalQ) | Km (TreS/Pep2 [2]) [mM]
OC[C@H]1O[C@H](O[C@H]2[C@H](O)[C@@H](O)C(O)O[C@@H]2CO)[C@H](O)[C@@H](O)[C@@H]1O (stereo partly drawn) [maltose] | 550 ± 130 | We therefore incubated MalQ with maltose | 
OC[C@H]1O[C@H](O[C@H]2O[C@H](CO)[C@@H](O)[C@H](O)[C@H]2O)[C@H](O)[C@@H](O)[C@@H]1O [trehalose] |  |  | > 100
